Tests used:
C2C12 myotubes = assay: LC/MS-MS of isotopically labeled metabolites in differentiated C2C12 myotubes; format: cell-based, mouse; details: 5 mM, 5 days
[1] = system: muscular dystrophy caused by FKRP mutations; assay: Ribitol/ribose supplementation in animal model of FKRP mutation muscular dystrophy; format: in vivo; details: supplement via drinking water

Row | Molecule | Levels of 13C-ribitol-5P and CDP-13C-ribitol in cells (C2C12 myotubes) | Disease pathology of muscular dystrophy caused by FKRP mutations [1]
1 | ^13C5-ribitol [^13C-ribitol] | clearly elevated levels | 
2 | O=C[C@H](O)[C@H](O)[C@H](O)CO [ribose] |  | diminish disease pathology
